The subject of the first test is H3K36me3 in A549 cells. Kind of test: In-Cell Western (ICW) assay of SETD2 inhibitors (A549 assay). The following applies: A549 cells; read-out: SETD2 A549. The test is classed as cell-based, human. The gist of the method:
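A549 cells seeded at 4,000/well onto compound and incubated 3 days at 37° C. Methanol-fixed cells stained overnight at 4° C with anti-H3K36me3 (1:1000), then IRDye 800CW secondary with DRAQ5 DNA counterstain. Plates read by Licor imaging at 700 and 800 channels.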
Consider `Cc1cc(C(=O)NC2CNC2)cnc1C(NC(=O)c1cc2cccc(C)c2[nH]1)C1CC1` (centres unmarked) [compound 535], for which the IC50 was greater than 25 µM.
Turning to `Cc1ccc(F)c2cc(C(=O)Nc3cccc(N4CCC(N(CCO)CCO)CC4)c3)[nH]c12` [compound 227], the IC50 was 0.5 µM.
Consider `Cc1ccc(F)c2cc(C(=O)Nc3cccc(-c4ccc(OCCO)cc4)c3)[nH]c12` [compound 231], for which the IC50 was 0.5 µM.
`Cc1cccc2cc(C(=O)Nc3ccc4ccc(CN5CCOCC5)cc4c3)[nH]c12` [compound 487]: the IC50 came out at 11 µM.
Regarding `Cc1ccc(F)c2cc(C(=O)NC(C(N)=O)c3ccccn3)[nH]c12` (centres unmarked) [compound 503], the IC50 worked out at 14.8 µM.
Regarding `COCC(=O)N1CCN([C@@H]2CCC[C@@H](NC(=O)c3cc4c(F)ccc(C)c4[nH]3)C2)CC1` [compound 847], the IC50 was greater than 2 µM.
Same read-out and setting: then `Cc1ccc(F)c2cc(C(=O)NC3CCCC(N4CCN(C(=O)OC(C)C)CC4)C3)[nH]c12` (centres unmarked) [compound 997], with 0.08 µM.
For the compound `CCCNC1CCN(c2cccc(NC(=O)c3cc4c(F)ccc(C)c4[nH]3)c2)CC1` [compound 225], the IC50 came to 0.5 µM.
With `COCCN(C(C)=O)C1CCN(C2CCCC(NC(=O)c3cc4c(F)ccc(C)c4[nH]3)C2)C1` (centres unmarked) [compound 844], the IC50 was greater than 2 µM.
Still for that read-out and setting: then `Cc1cccc2cc(C(=O)Nc3ccc4ncc(CN(C)C)n4c3)[nH]c12` [compound 427], with 4 µM.
With `Cc1ccc(F)c2cc(C(=O)Nc3cccc(N4CCOC(CCO)C4)c3)[nH]c12` (centres unmarked) [compound 50], the IC50 came to 0.1 µM.
As to `CC(=O)N1CC2CN(C3CCCC(NC(=O)c4cc5c(F)ccc(C)c5[nH]4)C3)CC2C1` (centres unmarked) [compound 1178], the IC50 was greater than 2 µM.
Regarding `COC1CCN(c2cccc(NC(=O)c3cc4c(F)ccc(C)c4[nH]3)c2)CC1` [compound 198], the IC50 was 0.4 µM.
Regarding `Cc1ccc(F)c2cc(C(=O)NC3CCCC(N4CCn5c(nnc5C(F)(F)F)C4)C3)[nH]c12` (centres unmarked) [compound 989], the IC50 is 0.8 µM.
`Cc1ccc(F)c2cc(C(=O)NC3CCCC(N4CCN(C(=O)NC5CCOCC5)CC4)C3)[nH]c12` (centres unmarked) [compound 1170]: the IC50 was greater than 2 µM.
In the case of `Cc1cc2ncc(CN(C)C)n2cc1NC(=O)c1cc2cccc(C)c2[nH]1` [compound 551], the IC50 was greater than 25 µM.
As for `Cc1ccc(F)c2cc(C(=O)NC(C(=O)Nc3ccccc3)c3ccccn3)[nH]c12` (centres unmarked) [compound 517], the IC50 is 18.5 µM.
Consider `Cc1ccc(F)c2cc(C(=O)N[C@@H]3CCC[C@H](N4CCN(C(=O)CN(C)C)CC4)C3)[nH]c12` [compound 854], for which the IC50 came to 0.5 µM.
Turning to `CC(=O)N1CCN(C2COCC(NC(=O)c3cc4c(F)ccc(C)c4[nH]3)C2)CC1` (centres unmarked) [compound 988], the IC50 is greater than 2 µM.
Still for that read-out and setting: next, `Cc1ccc(F)c2cc(C(=O)Nc3cc(F)cc(N4CCC(N5CCOC(CO)C5)C4)c3)[nH]c12` (centres unmarked) [compound 16]: 0.05 µM; `Cc1cccc2cc(C(=O)NC3CCC(NC(=O)Cc4cccnc4)CC3)[nH]c12` (centres unmarked) [compound 605]: greater than 25 µM; `CC(=O)N1CCN(C2CCCC(NC(=O)c3cc4c(F)ccc(C)c4[nH]3)C2)C(C)C1` (centres unmarked) [compound 1021]: 0.09 µM.
Regarding `Cc1ccc(F)c2cc(C(=O)NC3CCCC(N4CCn5cnnc5C4)C3)[nH]c12` (centres unmarked) [compound 860], the IC50 came to 1.6 µM.
Turning to `CNC(=O)C(NC(=O)c1cc2c(F)ccc(C)c2[nH]1)c1ccccn1` (centres unmarked) [compound 585], the IC50 is greater than 25 µM.
For `Cc1cccc2cc(C(=O)NC3CCNC(=O)c4ccccc43)[nH]c12` (centres unmarked) [compound 620], the IC50 is greater than 25 µM.

The target of a further test is T1, SETD2(1434-1711) (Homo sapiens, UniProt Q9BYW2).
T1 construct: SETD2 (1434-1711) Assay; catalogue N/A
T1 sequence (Q9BYW2 1434-1711): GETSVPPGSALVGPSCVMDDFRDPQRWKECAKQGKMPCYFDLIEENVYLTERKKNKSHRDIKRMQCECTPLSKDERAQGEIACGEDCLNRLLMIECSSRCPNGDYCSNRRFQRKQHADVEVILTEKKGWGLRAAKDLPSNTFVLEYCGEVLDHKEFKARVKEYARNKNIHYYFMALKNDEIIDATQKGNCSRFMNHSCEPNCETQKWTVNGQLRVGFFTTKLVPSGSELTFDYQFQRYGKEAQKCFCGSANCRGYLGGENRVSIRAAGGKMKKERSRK
The experiment in a line: SETD2 (1434-1711) assay. It counts as biochemical. The following applies: read-out: SETD2 (1434-1711).
On to `Cc1cc(C(=O)NC2CNC2)cnc1C(NC(=O)c1cc2cccc(C)c2[nH]1)C1CC1` (centres unmarked) [compound 535], for which the IC50 came to 0.6 µM.
As to `Cc1ccc(F)c2cc(C(=O)Nc3cccc(N4CCC(N(CCO)CCO)CC4)c3)[nH]c12` [compound 227], the IC50 worked out at 0.03 µM.
Take `Cc1ccc(F)c2cc(C(=O)Nc3cccc(-c4ccc(OCCO)cc4)c3)[nH]c12` [compound 231]: the IC50 turned out to be 0.1 µM.
Same read-out and setting: then `Cc1cccc2cc(C(=O)Nc3ccc4ccc(CN5CCOCC5)cc4c3)[nH]c12` [compound 487], with 1.6 µM.
As to `Cc1ccc(F)c2cc(C(=O)NC(C(N)=O)c3ccccn3)[nH]c12` (centres unmarked) [compound 503], the IC50 stood at 9.7 µM.
On to `COCC(=O)N1CCN([C@@H]2CCC[C@@H](NC(=O)c3cc4c(F)ccc(C)c4[nH]3)C2)CC1` [compound 847], for which the IC50 amounted to 1 µM.
Consider `Cc1ccc(F)c2cc(C(=O)NC3CCCC(N4CCN(C(=O)OC(C)C)CC4)C3)[nH]c12` (centres unmarked) [compound 997], for which the IC50 came to 0.01 µM.
On to `CCCNC1CCN(c2cccc(NC(=O)c3cc4c(F)ccc(C)c4[nH]3)c2)CC1` [compound 225], for which the IC50 amounted to 0.03 µM.
The same measure, in the same setting: next, `COCCN(C(C)=O)C1CCN(C2CCCC(NC(=O)c3cc4c(F)ccc(C)c4[nH]3)C2)C1` (centres unmarked) [compound 844]: 8.5 µM; `Cc1cccc2cc(C(=O)Nc3ccc4ncc(CN(C)C)n4c3)[nH]c12` [compound 427]: 0.4 µM; `Cc1ccc(F)c2cc(C(=O)Nc3cccc(N4CCOC(CCO)C4)c3)[nH]c12` (centres unmarked) [compound 50]: 0.06 µM.
For `CC(=O)N1CC2CN(C3CCCC(NC(=O)c4cc5c(F)ccc(C)c5[nH]4)C3)CC2C1` (centres unmarked) [compound 1178], the IC50 amounted to 3.9 µM.
Same read-out and setting: next, `COC1CCN(c2cccc(NC(=O)c3cc4c(F)ccc(C)c4[nH]3)c2)CC1` [compound 198]: 0.07 µM.
Take `Cc1ccc(F)c2cc(C(=O)NC3CCCC(N4CCn5c(nnc5C(F)(F)F)C4)C3)[nH]c12` (centres unmarked) [compound 989]: the IC50 is 0.1 µM.
On to `Cc1ccc(F)c2cc(C(=O)NC3CCCC(N4CCN(C(=O)NC5CCOCC5)CC4)C3)[nH]c12` (centres unmarked) [compound 1170], for which the IC50 was 1.8 µM.
As to `Cc1cc2ncc(CN(C)C)n2cc1NC(=O)c1cc2cccc(C)c2[nH]1` [compound 551], the IC50 was determined as 6.7 µM.
In the case of `Cc1ccc(F)c2cc(C(=O)NC(C(=O)Nc3ccccc3)c3ccccn3)[nH]c12` (centres unmarked) [compound 517], the IC50 was determined as 3.7 µM.
As for `Cc1ccc(F)c2cc(C(=O)N[C@@H]3CCC[C@H](N4CCN(C(=O)CN(C)C)CC4)C3)[nH]c12` [compound 854], the IC50 stood at 0.02 µM.
As to `CC(=O)N1CCN(C2COCC(NC(=O)c3cc4c(F)ccc(C)c4[nH]3)C2)CC1` (centres unmarked) [compound 988], the IC50 worked out at 4.1 µM.
With `Cc1ccc(F)c2cc(C(=O)Nc3cc(F)cc(N4CCC(N5CCOC(CO)C5)C4)c3)[nH]c12` (centres unmarked) [compound 16], the IC50 was determined as 0.01 µM.
For the compound `Cc1cccc2cc(C(=O)NC3CCC(NC(=O)Cc4cccnc4)CC3)[nH]c12` (centres unmarked) [compound 605], the IC50 is greater than 50 µM.
As to `CC(=O)N1CCN(C2CCCC(NC(=O)c3cc4c(F)ccc(C)c4[nH]3)C2)C(C)C1` (centres unmarked) [compound 1021], the IC50 amounted to 0.05 µM.
Consider `Cc1ccc(F)c2cc(C(=O)NC3CCCC(N4CCn5cnnc5C4)C3)[nH]c12` (centres unmarked) [compound 860], for which the IC50 stood at 0.1 µM.
On the same count and under the same terms, next, `CNC(=O)C(NC(=O)c1cc2c(F)ccc(C)c2[nH]1)c1ccccn1` (centres unmarked) [compound 585]: 34 µM.
On to `Cc1cccc2cc(C(=O)NC3CCNC(=O)c4ccccc43)[nH]c12` (centres unmarked) [compound 620], for which the IC50 is greater than 200 µM.

(Values after US12116358B2, “Substituted indoles and methods of use thereof” (EPIZYME, INC., priority 2018, dated 2024).)
